# Results from patent US20190314311A1, “PHARMACEUTICAL COMPOSITION” (JAPAN SCIENCE AND TECHNOLOGY AGENCY, priority 2016, published 2019).
# Legend:
# Thio-Q62 protein [1] = test: protein aggregation turbidity assay; format: biochemical; conditions: 8.2 μM Thio-Q62, 600 mM arginine, PBS, 37° C., neutral pH, 5 days
# Procedure: In the subsequent experiments, the protein aggregation turbidity assay was performed by the method described in Non-Patent Document 6. Specifically, it was performed as follows.
# (§1) A solution in which abnormally expanded proteins were dissolved in physiological saline phosphate (PBS) was used as a measurement sample. The solution was incubated at 37° C., and turbidity at 405 nm was measured every 24 hours using a microplate reader “Spectramax Plus plate reader” (Molecular Devices Inc.).
# As an abnormally expanded PolyQ protein, a Thioredoxin-Q62 (Thio-Q62) fusion protein consisting of Thioredoxin and a PolyQ stretch with 62 glutamines was used.
# As a control, Thio-Q62 protein alone was incubated in the same manner, and the turbidity was measured every 24 hours.
# As controls, a solution containing Thio-Q62 protein alone, and a solution containing Thio-Q62 protein and 400 mM proline were incubated in the same manner, respectively, and turbidity was measured after 5 days. […] The relative turbidity (%) of each solution was measured. The turbidity of the solution containing Thio-Q62 protein alone was set to 100%. In the figure, values represent means±SEM (n=3). “*” represents p<0.05, “***” represents p<0.001, “n.s.” represents not significant.
# Thio-Q62 protein [2] = test: seed-induced polyQ aggregation reaction (turbidity); format: biochemical; conditions: 10 μM Thio-Q62 + seeds, 400 mM arginine or proline, 37° C., 7 days
# Procedure: as §1
# Thio-Q62 protein [3] = test: native PAGE of β-sheet conformational transition; format: biochemical; conditions: 8.2 μM Thio-Q62, 600 mM arginine, PBS pH 7.5, 37° C., five days
# Excerpt: The separated proteins were stained with Coomassie brilliant blue (CBB).
# MJDtr-Q78(S) flies = test: Drosophila model of the PolyQ diseases (SCA3/MJD); format: in vivo, Drosophila melanogaster
# Procedure: The spinocerebellar ataxia type 3 (SCA3/MJD) model flies were used, which express the truncated form of the MJD protein with an abnormally expanded polyQ repeat consisting of 78 glutamines (MJDtr-Q78) in the compound eye (Non-Patent Document 12). The severe compound eye degeneration induced by MJDtrQ78 can be easily detected under the light microscope.
# Fly culture and crosses were performed under standard conditions at 25° C. The MJDtr-Q78(S) transgenic fly line bearing the UAS-MJDtr-Q78 transgene for expression of MJDtr-Q78 described in Non-Patent Document 12 was used. The fly line bearing the gmr-GAL4 transgene was obtained from the Drosophila Genetic Resource Center at Kyoto Institute of Technology, Japan. […] For evaluation of compound eye degeneration, light microscopic images of the compound eye were taken using a stereoscopic microscope model “SZX9” (Olympus). For detection of the MJDtr-Q78 protein in eye imaginal discs of third instar larvae, immunostaining with an anti-hemagglutinin antibody (clone 3F10, Roche) was performed according to the method described in Non-Patent Document 13. Fluorescence microscopic images were taken using a confocal laser scanning microscope model “LSM510” (Carl Zeiss).
# [4] = system: Q40-GFP expressing nematode line; test: lifespan analysis in C. elegans model of the PolyQ diseases; format: in vivo, Caenorhabditis elegans; conditions: 10 mM arginine; log-rank P<0.01
# Procedure: As a C. elegans model of the polyQ diseases, a Q40-GFP expressing nematode line (Non-Patent Document 14), which is a C. elegans line expressing GFP having a polyQ repeat consisting of 40 glutamines (Q40-GFP) was used.
# Nematodes were grown at 20° C. on nematode growth medium (NGM) plates seeded with Escherichia coli OP50. For the generation of the Q40-GFP expression nematode line, plasmids encoding Q40-GFP were injected into wild type strain N2.
# For lifespan analysis, nematodes were cultured on OP50 bacteria, and were examined daily for signs of life.
# SCA1 mice = test: balance beam test; format: in vivo, mouse; conditions: 6% arginine in drinking water from 3 weeks; 28 weeks of age; vs untreated SCA1 mice
# Procedure: SCA1 mice were also examined using the balance beam test to assess the motor coordination. For balance beam analysis, mice were assessed on their time to cross a beam with 1 m-long and 15 mm-diameter. The beam was placed approximately 50 cm above the ground with a bright light at the starting end and a dark box at the far end. Mice were initially trained for 3 consecutive days, 2 trials each, so that they learn to cross the beam without falling or turning around. On testing days, the time it took the mice to cross the beam was recorded. If the mice took longer than 60 seconds to cross, the score was counted as 60 seconds. Two trials were performed for each mouse, and a faster time was used for analysis.
# SBMA mice = test: horizontal open-field activity and rearing behavior; format: in vivo, mouse; conditions: 6% arginine in drinking water from 3 weeks; 12 weeks of age
# Excerpt: As another PolyQ disease mouse model, the SBMA mouse (Non-Patent Document 18) was used. […] This motor dysfunction can be reversed with drug treatment (Non-Patent Document 19). The SBMA mouse used in this experiment was a kind gift from Dr. Gen Sobue (Nagoya University, Japan).
# The motor dysfunction of the SBMA mouse can be monitored as spontaneous motor dysfunction, by measuring horizontal open-field activity and rearing behavior in the cage (Non-Patent Document 18). […] As a control, water without arginine was given to SBMA mice as drinking water (arginine untreated).
# Horizontal open-field activity and rearing behavior were measured using a spontaneous locomotor activity monitor “Supermex” (Muromachi Kikai) according to the method described in Non-Patent Document 18. Specifically, a mouse was placed in a measuring cage in which infrared beams were projected inside and were allowed to move around freely. When the mouse moves inside the measuring cage, the infrared beam is obstructed and the infrared ray cannot be detected by the light receiving part (beam break). The number of beam breaks per minute was determined by measuring the number of beam breaks (counts/min). To detect movements in the horizontal direction, the number of beam breaks of the infrared beams projected in the vertical direction were counted. […]
# [5] = Non-Patent Documents 3 and 4; cited from earlier work
compound,measurement,setting,value
N=C(N)NCCC[C@H](N)C(=O)O [arginine],lag phase of turbidity time course,Thio-Q62 protein [1],elongated the lag phase
same,speed of aggregation (turbidity time course),Thio-Q62 protein [1],decreased the speed of aggregation
same,seed-induced increase in turbidity,Thio-Q62 protein [2],markedly decreased
same,"band of β-sheet-rich monomer (native PAGE, CBB)",Thio-Q62 protein [3],did not appear even when incubated for a sufficient period of time
same,number of inclusion bodies in eye discs of larvae,MJDtr-Q78(S) flies; food containing arginine (100 mM in FIG. 10),decreased
same,compound eye degeneration,"MJDtr-Q78(S) flies; food containing either 25, 50 or 100 mM arginine",remarkably ameliorated
same,survival rate,[4],significantly improved
same,time to cross the balance beam,SCA1 mice,significantly less time
same,horizontal activity,SBMA mice,improved to levels comparable to untreated wild type mice
same,rearing behavior,SBMA mice,improved to levels comparable to untreated wild type mice
same,safety in clinical trials,[5],safety of arginine has been established
